A short description of one data set: CUPRAC assay. Conditions: pH 7.0, 450 nm. The method, then:
Cupric reducing antioxidant capacity (CUPRAC) assay was performed according to the method by Apak et al.[20] with slight modifications. The CUPRAC reagent was prepared by mixing equal volume of CuCl2 (10 mM), neocuproine solution (7.5 mM), and acetate buffer (pH = 7.0). Subsequently, 50 µl of TP-10, TP-315, TP-427 (0.002–0.4 mg/ml) and 150 µl of CUPRAC reagent were pipetted into each well of 96-well plate (Nunc, Roskilde, Denmark). After pipetting, the plate was shaken for 5 min and then incubated for 25 min in the dark at room temperature. The absorbance of the solutions was read at 450 nm using a microplate reader (Epoch, BioTek Instruments, Inc., Winooski, VT, USA). At least six tests were performed for each concentration of the investigated compounds. The results were expressed as the IC50 (µg/ml) ± SD.

The next data set can be described thus: DPPH assay. Conditions: methanol, 30 min, 517 nm. The method, then: Free radical scavenging activity of compounds TP-10, TP-315 and TP-427 was evaluated using DPPH assay. Briefly, 25 µl of 0.2 mM of methanolic solution of DPPH ([…]) was mixed with 175 µl of varying concentrations (0.002–4.5 mg/ml) of the studied compounds dissolved in methanol. Reaction mixtures in the 96-well plate were incubated in the dark at room temperature for 30 min. The absorbance was measured at 517 nm against blank (which consists of all reagents without the investigated compounds) using a microplate reader (Epoch, BioTek Instruments, Inc., Winooski, VT, USA). As a reference, the antioxidant activity of vitamin C was evaluated. Each concentration of the compounds was assayed at least six times. The results were expressed as the IC50 (µg/ml) ± SD calculated using the linear regression analysis.
In general terms: Loss of DPPH colour is used to gauge radical scavenging.

Details of data set [1]: method as in Barton et al. 25. Particulars: ref Barton et al. 25, cited from earlier work.
Data set [2] concerns 6 Hz-induced psychomotor seizures. More on the design: method as in Barton et al. 25. Conditions: pretreatment time 15 min, ref Barton et al. 25, cited from earlier work.

Converted amounts (≈) assume the structure as drawn. Like-named read-outs stand apart in the source and are kept apart here.

For the compound `O=C1O[C@H]([C@@H](O)CO)C(O)=C1O` [Ascorbic acid, reference compound], in the data set “CUPRAC assay”, the “IC50 ± SD, CUPRAC” value stood at 16.05 ± 0.48 µg/mL (≈ 91.1 µM). The “IC50 ± SD, DPPH” value in the data set “DPPH assay” was determined as 7.82 ± 0.54 µg/mL (≈ 44.4 µM).
Take `CC[C@@H](C(N)=O)N1CCCC1=O` [Levetiracetam]: in data set [1] (pretreatment time 60 min), the TD50 is greater than 500 mg/kg.
Take `CCCC(CCC)C(=O)O` [Valproate, valproic acid]: in data set [1] (pretreatment time 15 min), the TD50 is 363.3 mg/kg. For the same compound, the 50% effective dose (ED50) – broadly, the midpoint of the dose-response relation – in data set [2] (mouse 6 Hz test) is given as 130.6 mg/kg. Further, the “Protective index (TD50/ED50)” value in data set [2] is reported as 2.8.

These data come from publication PMC7178883, “1,2,4-Triazole-based anticonvulsant agents with additional ROS scavenging activity are effective in a model of pharmacoresistant epilepsy” (Journal of Enzyme Inhibition and Medicinal Chemistry, 2020).
